17 molecules from ChEMBL document CHEMBL3352415, “Synthesis and biological evaluation of novel thiadiazole amides as potent Cdc25B and PTP1B inhibitors” (Bioorg Med Chem Lett, 2014) can be followed below.

Assay [1] addresses T1, M-phase inducer phosphatase 2 (Homo sapiens) (UniProt P30305).
T1 sequence (whole entry): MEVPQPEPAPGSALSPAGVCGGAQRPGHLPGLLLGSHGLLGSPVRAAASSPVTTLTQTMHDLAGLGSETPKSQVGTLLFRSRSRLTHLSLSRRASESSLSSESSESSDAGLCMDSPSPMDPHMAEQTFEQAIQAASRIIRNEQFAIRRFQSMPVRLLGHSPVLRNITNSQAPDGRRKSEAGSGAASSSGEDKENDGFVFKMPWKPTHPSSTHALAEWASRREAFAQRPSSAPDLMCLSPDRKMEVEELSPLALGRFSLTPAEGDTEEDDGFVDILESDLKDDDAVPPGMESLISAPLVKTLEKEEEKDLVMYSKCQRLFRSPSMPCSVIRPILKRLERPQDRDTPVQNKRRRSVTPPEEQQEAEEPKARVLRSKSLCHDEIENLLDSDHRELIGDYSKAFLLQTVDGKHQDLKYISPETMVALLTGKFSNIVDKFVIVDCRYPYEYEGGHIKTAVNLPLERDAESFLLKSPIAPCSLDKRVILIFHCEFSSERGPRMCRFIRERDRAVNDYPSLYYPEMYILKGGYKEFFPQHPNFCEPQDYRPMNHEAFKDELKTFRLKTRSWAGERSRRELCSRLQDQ
Nature of the assay: Inhibition of Cdc25B (unknown origin) at 5 ug/ml.

In assay [2] the target is T2, Tyrosine-protein phosphatase non-receptor type 1 (Homo sapiens) (UniProt P18031).
T2 sequence (whole entry): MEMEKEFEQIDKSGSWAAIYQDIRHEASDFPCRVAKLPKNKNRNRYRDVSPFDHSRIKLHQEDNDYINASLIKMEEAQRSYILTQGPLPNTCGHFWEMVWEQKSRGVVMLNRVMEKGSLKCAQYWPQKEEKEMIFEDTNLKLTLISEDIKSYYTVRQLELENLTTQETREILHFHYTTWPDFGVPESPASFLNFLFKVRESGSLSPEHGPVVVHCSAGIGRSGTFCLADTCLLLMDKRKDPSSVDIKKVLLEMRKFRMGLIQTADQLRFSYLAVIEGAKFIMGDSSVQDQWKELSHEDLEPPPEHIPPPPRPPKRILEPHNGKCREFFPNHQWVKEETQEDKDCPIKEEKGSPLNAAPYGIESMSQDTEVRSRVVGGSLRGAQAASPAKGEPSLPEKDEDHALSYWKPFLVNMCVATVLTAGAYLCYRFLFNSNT
The experiment in a line: Inhibition of PTP1B (unknown origin) at 5 ug/ml.

Assay [3] addresses T3, Tyrosine-protein phosphatase non-receptor type 2 (Homo sapiens, UniProt P17706).
T3 sequence (P17706 whole entry): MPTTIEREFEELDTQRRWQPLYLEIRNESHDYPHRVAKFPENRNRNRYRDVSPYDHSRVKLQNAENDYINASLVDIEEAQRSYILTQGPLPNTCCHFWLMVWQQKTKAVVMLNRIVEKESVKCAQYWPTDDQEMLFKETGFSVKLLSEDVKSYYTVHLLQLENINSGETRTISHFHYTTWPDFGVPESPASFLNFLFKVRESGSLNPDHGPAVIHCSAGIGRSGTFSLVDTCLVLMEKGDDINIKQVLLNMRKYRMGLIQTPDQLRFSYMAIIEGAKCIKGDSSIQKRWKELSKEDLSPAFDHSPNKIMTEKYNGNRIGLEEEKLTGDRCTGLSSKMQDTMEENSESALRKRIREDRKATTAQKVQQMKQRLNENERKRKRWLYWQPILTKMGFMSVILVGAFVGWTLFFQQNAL
Nature of the assay: Inhibition of TCPTP (unknown origin).

The target in assay [4] is T4, M-phase inducer phosphatase 2 (Homo sapiens, UniProt P30305).
T4 sequence (P30305 whole entry): T1 sequence (whole entry)
Nature of the assay: Inhibition of Cdc25B (unknown origin).

For assay [5], the target named is T5, Tyrosine-protein phosphatase non-receptor type 11 (Homo sapiens, UniProt Q06124).
T5 sequence (Q06124 whole entry): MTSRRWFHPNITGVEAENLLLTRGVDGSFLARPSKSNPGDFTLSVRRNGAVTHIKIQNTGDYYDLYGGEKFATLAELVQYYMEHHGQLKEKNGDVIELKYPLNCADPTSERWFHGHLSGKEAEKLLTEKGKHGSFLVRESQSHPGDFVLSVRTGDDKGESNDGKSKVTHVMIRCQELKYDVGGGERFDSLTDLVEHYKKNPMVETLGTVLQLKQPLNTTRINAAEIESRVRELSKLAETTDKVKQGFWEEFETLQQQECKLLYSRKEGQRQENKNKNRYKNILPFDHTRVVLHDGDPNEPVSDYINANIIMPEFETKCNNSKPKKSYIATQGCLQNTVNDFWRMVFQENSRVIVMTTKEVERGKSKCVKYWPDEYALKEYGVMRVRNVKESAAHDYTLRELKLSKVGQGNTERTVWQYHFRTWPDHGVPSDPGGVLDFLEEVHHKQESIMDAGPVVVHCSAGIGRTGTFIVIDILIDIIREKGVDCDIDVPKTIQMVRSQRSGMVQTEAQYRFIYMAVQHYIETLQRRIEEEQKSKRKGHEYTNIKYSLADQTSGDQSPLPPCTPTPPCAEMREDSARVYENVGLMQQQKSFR
Nature of the assay: Inhibition of SHP2 (unknown origin).

For assay [6], the target named is Receptor-type tyrosine-protein phosphatase F (Homo sapiens, UniProt P10586). The experiment in a line: Inhibition of LAR (unknown origin).
Receptor-type tyrosine-protein phosphatase F, sequence (P10586 whole entry): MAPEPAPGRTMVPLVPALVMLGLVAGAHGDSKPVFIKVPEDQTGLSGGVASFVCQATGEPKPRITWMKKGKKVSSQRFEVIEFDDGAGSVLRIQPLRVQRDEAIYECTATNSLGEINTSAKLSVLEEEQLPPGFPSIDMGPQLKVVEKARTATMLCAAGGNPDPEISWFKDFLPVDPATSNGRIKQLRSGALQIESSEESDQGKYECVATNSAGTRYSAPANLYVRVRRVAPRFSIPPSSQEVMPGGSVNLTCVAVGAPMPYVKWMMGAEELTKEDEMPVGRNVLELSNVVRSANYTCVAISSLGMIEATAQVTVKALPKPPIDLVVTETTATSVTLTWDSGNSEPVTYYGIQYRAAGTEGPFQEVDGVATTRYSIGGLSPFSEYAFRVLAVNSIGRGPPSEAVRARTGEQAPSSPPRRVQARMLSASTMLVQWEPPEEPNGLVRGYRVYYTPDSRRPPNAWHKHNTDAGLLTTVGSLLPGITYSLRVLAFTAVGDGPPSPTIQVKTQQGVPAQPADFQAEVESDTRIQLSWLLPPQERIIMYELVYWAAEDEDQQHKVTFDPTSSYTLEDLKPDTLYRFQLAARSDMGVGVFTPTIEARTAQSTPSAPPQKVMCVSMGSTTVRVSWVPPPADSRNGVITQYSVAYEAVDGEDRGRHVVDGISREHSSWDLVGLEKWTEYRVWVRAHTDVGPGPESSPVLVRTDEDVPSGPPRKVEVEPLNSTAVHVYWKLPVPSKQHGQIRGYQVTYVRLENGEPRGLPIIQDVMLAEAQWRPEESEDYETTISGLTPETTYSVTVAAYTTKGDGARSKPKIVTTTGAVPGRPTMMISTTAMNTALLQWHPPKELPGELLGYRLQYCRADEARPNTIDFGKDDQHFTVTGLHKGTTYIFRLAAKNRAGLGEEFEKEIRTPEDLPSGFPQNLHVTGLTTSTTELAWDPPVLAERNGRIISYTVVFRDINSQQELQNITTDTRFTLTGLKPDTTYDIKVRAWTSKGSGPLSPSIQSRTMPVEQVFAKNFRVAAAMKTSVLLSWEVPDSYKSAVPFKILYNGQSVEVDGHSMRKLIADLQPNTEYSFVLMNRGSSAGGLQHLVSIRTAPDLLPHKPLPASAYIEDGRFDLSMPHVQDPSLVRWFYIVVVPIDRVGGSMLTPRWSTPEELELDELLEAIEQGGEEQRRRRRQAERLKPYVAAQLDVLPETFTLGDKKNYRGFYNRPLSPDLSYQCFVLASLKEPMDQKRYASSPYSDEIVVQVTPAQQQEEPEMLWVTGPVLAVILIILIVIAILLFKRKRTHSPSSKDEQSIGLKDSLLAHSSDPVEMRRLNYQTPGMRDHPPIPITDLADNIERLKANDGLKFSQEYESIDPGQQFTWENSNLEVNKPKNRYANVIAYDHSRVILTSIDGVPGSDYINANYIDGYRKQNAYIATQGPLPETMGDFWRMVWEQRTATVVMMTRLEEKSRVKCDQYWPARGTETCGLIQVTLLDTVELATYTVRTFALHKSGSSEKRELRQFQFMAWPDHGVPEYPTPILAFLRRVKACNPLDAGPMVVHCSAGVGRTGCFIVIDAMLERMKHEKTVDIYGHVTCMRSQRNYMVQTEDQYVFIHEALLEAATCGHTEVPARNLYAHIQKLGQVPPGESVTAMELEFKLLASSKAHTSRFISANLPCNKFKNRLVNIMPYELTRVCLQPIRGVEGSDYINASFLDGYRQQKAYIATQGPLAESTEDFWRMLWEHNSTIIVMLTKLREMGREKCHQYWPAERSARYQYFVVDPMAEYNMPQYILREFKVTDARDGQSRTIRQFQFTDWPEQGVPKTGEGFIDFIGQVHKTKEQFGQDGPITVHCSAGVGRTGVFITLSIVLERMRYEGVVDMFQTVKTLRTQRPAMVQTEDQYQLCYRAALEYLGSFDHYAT
Assay [7] has as its target T6, Tyrosine-protein phosphatase non-receptor type 1 (Homo sapiens, UniProt P18031).
T6 sequence (P18031 whole entry): T2 sequence (whole entry)
The experiment in a line: Inhibition of PTP1B (unknown origin).

Assay [8] addresses Tyrosine-protein phosphatase non-receptor type 6 (Homo sapiens, UniProt P29350). The experiment in a line: Inhibition of SHP1 (unknown origin).

Tyrosine-protein phosphatase non-receptor type 6, sequence (P29350 whole entry): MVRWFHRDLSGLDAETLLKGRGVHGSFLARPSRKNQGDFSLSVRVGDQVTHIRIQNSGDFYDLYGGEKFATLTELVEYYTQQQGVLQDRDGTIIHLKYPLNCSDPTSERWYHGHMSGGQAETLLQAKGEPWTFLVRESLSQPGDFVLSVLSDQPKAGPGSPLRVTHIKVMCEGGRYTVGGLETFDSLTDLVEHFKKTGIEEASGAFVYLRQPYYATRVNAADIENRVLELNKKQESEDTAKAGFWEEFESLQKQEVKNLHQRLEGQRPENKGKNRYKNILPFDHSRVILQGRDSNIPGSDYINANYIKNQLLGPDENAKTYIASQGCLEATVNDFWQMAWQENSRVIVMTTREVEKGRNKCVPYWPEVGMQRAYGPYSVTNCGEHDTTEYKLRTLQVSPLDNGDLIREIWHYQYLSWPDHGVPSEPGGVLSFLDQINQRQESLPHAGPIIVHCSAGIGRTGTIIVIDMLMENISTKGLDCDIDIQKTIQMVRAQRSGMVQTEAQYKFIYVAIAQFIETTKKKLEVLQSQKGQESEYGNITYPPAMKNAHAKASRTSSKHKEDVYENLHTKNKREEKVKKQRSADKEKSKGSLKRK

One may read the inhibition as the relative decrease from the control value, in per cent. Read a high inhibition as a response far below the control. One may read the IC50 as the concentration that inhibits the measured activity by half. As to `O=C(Cc1cccc2ccccc12)Nc1nnc(-c2ccc(Oc3ccc([N+](=O)[O-])cc3[N+](=O)[O-])cc2)s1`, the inhibition in assay [1] worked out at 88.9%; in assay [2], 82.1%. Further, the IC50 entry in assay [3] is “Not Active”; in assay [4], 5.69 µM; in assay [5], “Not Active”; in assay [6] it was “Not Active”; in assay [7] it was 6.07 µM; in assay [8] it was “Not Active”.
For the molecule `O=C(Nc1nnc(-c2ccc(Oc3ccc([N+](=O)[O-])cc3)cc2)s1)c1ccccc1[N+](=O)[O-]`, the inhibition in assay [1] stood at 13%; in assay [2], 85%. Besides, the IC50 entry in assay [3] is “Not Active”; in assay [5] it was “Not Active”; in assay [6] it was “Not Active”; in assay [7], 9.17 µM; in assay [8] it was “Not Active”.
As to `O=C(Cc1cccc2ccccc12)Nc1nnc(-c2ccc(Oc3ccc([N+](=O)[O-])cc3)cc2)s1`, the inhibition in assay [1] is 90.4%; in assay [2], 74.1%. The 50% inhibitory concentration (IC50) entry in assay [3] is “Not Active”; in assay [4], 5.16 µM; in assay [5] it was “Not Active”; in assay [6], “Not Active”; in assay [7] it was 7.52 µM; in assay [8], “Not Active”.
In the case of `O=C(Cc1ccccc1)Nc1nnc(-c2ccc(Oc3ccc([N+](=O)[O-])cc3)cc2)s1`, the inhibition was 43.6% in assay [1] and 54.9% in assay [2]. Further, the IC50 entry in assay [3] is “Not Active”; in assay [5], “Not Active”; in assay [6] it was “Not Active”; in assay [7], 12.6 µM; in assay [8] it was “Not Active”.
In the case of `Cc1ccccc1C(=O)Nc1nnc(-c2ccc(Oc3ccc([N+](=O)[O-])cc3[N+](=O)[O-])cc2)s1`, the results for the inhibition in assay [1] and in assay [2] were 93.7% and 84%, respectively. For the same molecule, the IC50 entry in assay [3] was “Not Active”; in assay [4] it was 6.51 µM; in assay [5], “Not Active”; in assay [6], “Not Active”; in assay [7], 8.44 µM; in assay [8] it was “Not Active”.
On to `O=C(Nc1nnc(-c2ccc(Oc3ccc([N+](=O)[O-])cc3)cc2)s1)c1cccc(F)c1`, for which the inhibition in assay [1] stood at 81.7%; in assay [2] it was 37.1%. In addition, the half-maximal inhibitory concentration (IC50) entry in assay [3] was “Not Active”; in assay [4] it was 10.5 µM; in assay [5] it was “Not Active”; in assay [6], “Not Active”; in assay [8], “Not Active”.
Turning to `Cc1ccc(C(=O)Nc2nnc(-c3ccc(Oc4ccc([N+](=O)[O-])cc4)cc3)s2)cc1`, the values for the inhibition in assay [1] and in assay [2] were 25.8% and 68.4%, respectively. Besides, the IC50 entry in assay [3] was “Not Active”; in assay [5] it was “Not Active”; in assay [6], “Not Active”; in assay [7] it was 19.1 µM; in assay [8], “Not Active”.
With SODIUM ORTHOVANAD, the IC50 in assay [5] stood at 24.1 µg/mL; in assay [8], 15.9 µg/mL.
On to `COc1ccc(C(=O)Nc2nnc(-c3ccc(Oc4ccc([N+](=O)[O-])cc4[N+](=O)[O-])cc3)s2)cc1`, for which the inhibition in assay [1] worked out at 28.9%; in assay [2], 92.9%. For the same molecule, the IC50 result in assay [3] is “Not Active”; in assay [5], “Not Active”; in assay [6], “Not Active”; in assay [7] it was 7.6 µM; in assay [8], “Not Active”.
In the case of `O=C(Nc1nnc(-c2ccc(Oc3ccc([N+](=O)[O-])cc3[N+](=O)[O-])cc2)s1)c1ccc(Cl)cc1`, the inhibition in assay [1] stood at 90.2%; in assay [2] it was 42.3%. In addition, the IC50 result in assay [3] is “Not Active”; in assay [4], 4.44 µM; in assay [5], “Not Active”; in assay [6], “Not Active”; in assay [8] it was “Not Active”.
For the molecule `O=C(Nc1nnc(-c2ccc(Oc3ccc([N+](=O)[O-])cc3)cc2)s1)c1cccc([N+](=O)[O-])c1`, the inhibition in assay [1] came out at 24.2%; in assay [2], 94.6%. In addition, the half-inhibitory concentration (IC50) result in assay [3] was “Not Active”; in assay [5], “Not Active”; in assay [6] it was “Not Active”; in assay [7], 1.83 µM; in assay [8] it was “Not Active”.
Regarding `COc1ccccc1C(=O)Nc1nnc(-c2ccc(Oc3ccc([N+](=O)[O-])cc3[N+](=O)[O-])cc2)s1`, the inhibition in assay [1] amounted to 17.5%; in assay [2], 91.3%. In addition, the 50% inhibitory concentration (IC50) entry in assay [3] was “Not Active”; in assay [5], “Not Active”; in assay [6], “Not Active”; in assay [7], 3.81 µM; in assay [8], “Not Active”.
In the case of `O=C(Nc1nnc(-c2ccc(Oc3ccc([N+](=O)[O-])cc3)cc2)s1)c1ccccc1Cl`, the inhibition in assay [1] came to 46.4%; in assay [2], 63%. For the same molecule, the IC50 result in assay [3] is “Not Active”; in assay [5] it was “Not Active”; in assay [6], “Not Active”; in assay [7] it was 13.8 µM; in assay [8] it was “Not Active”.
On to `COc1cccc(C(=O)Nc2nnc(-c3ccc(Oc4ccc([N+](=O)[O-])cc4)cc3)s2)c1`, for which the inhibition in assay [1] was 2.52%; in assay [2], 32.1%. The IC50 entry in assay [3], in assay [5], in assay [6] and in assay [8] was “Not Active” each time.
`COc1ccccc1C(=O)Nc1nnc(-c2ccc(Oc3ccc([N+](=O)[O-])cc3)cc2)s1`: the inhibition came to 26.1% in assay [1] and 84.8% in assay [2]. Besides, the IC50 result in assay [3] was “Not Active”; in assay [5], “Not Active”; in assay [6], “Not Active”; in assay [7] it was 13.1 µM; in assay [8] it was “Not Active”.
Consider `O=C(Nc1nnc(-c2ccc(Oc3ccc([N+](=O)[O-])cc3[N+](=O)[O-])cc2)s1)c1cccc(Cl)c1`, for which the results for the inhibition in assay [1] and in assay [2] were 37% and 80.7%, respectively. For the same molecule, the IC50 result in assay [3] is “Not Active”; in assay [5] it was “Not Active”; in assay [6] it was “Not Active”; in assay [7] it was 6.71 µM; in assay [8], “Not Active”.
For the molecule `O=C(Nc1nnc(-c2ccc(Oc3ccc([N+](=O)[O-])cc3)cc2)s1)c1ccc(F)cc1`, the values for the inhibition in assay [1] and in assay [2] were 31.7% and 77.1%, respectively. Also, the concentration for half-maximal inhibition (IC50) entry in assay [3] is “Not Active”; in assay [5], “Not Active”; in assay [6], “Not Active”; in assay [7], 20 µM; in assay [8], “Not Active”.
